Values of other authors as cited in US11478522B2, “Synergistic herbal compositions with prebiotic properties for treatment of acne” (KAMEDIS LTD., priority 2016, dated 2022).

Legend:
enzyme 11β-HSD1 = enzyme 11β-HSD1 (Homo sapiens, UniProt P28845)
NLRP3 inflammasome = NLRP3 inflammasome (Homo sapiens, UniProt Q96P20)
Sequence of NLRP3 inflammasome (Q96P20 whole entry): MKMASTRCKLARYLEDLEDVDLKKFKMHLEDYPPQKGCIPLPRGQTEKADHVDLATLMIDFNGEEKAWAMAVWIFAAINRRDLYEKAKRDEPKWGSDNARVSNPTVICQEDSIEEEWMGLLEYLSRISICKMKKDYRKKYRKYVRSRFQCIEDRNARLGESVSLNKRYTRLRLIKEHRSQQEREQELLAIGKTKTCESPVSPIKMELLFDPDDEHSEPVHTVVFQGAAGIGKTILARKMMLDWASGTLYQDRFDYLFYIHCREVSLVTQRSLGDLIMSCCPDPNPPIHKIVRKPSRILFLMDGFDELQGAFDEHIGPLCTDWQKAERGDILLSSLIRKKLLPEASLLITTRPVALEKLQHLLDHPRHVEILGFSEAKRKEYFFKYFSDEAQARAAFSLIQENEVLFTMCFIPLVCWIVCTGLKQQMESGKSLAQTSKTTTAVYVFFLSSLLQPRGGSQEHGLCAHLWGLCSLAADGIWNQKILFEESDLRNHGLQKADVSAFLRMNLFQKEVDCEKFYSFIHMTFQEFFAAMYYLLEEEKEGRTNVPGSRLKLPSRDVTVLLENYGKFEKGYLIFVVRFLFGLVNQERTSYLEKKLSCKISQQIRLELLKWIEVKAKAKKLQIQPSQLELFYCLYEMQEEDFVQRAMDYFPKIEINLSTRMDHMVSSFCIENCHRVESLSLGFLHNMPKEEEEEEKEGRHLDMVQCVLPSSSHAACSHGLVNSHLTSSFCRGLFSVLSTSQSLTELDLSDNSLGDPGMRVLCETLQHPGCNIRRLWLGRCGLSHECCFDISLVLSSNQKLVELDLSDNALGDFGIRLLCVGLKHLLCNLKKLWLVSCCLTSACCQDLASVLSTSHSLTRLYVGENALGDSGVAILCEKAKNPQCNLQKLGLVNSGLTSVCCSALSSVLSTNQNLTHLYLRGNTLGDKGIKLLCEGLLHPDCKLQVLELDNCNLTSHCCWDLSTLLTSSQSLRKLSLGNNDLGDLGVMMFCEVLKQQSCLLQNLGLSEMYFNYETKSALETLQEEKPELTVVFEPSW

Sequence of enzyme 11β-HSD1 (P28845 whole entry, species assumed): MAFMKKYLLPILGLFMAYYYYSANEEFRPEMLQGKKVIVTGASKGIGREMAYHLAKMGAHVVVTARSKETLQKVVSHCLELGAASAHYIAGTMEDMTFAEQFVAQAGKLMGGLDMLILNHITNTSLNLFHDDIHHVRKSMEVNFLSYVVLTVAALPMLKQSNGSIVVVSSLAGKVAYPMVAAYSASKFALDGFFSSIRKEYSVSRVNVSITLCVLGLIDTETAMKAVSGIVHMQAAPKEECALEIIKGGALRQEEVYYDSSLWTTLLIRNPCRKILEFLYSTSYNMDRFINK

- inhibition of the enzyme 11β-HSD1 (enzyme 11β-HSD1): effective and selective as inhibitors
- NLRP3 inflammasome activation (NLRP3 inflammasome): attenuate NLRP3 inflammasome activation
Compound: Cc1cc(O)c2c(c1)C(=O)c1cc(O)cc(O)c1C2=O [emodin]
